Results: PubChem BioAssay AID248 (DTP/NCI, 2004)
“And” between values parts separate entries of the source, which are not always exact repeats. Equal values may be shown once. Inconclusive results and toxic doses are left out.

System: L1210 leukemia ip in BDF1 mice, survival T/C
Assay: NCI In Vivo Anticancer Drug Screen. Data for tumor model L1210 Leukemia (intraperitoneal) in B6D2F1 (BDF1) mice
Conditions: endpoint: mean survival time, higher = longer survival
Method in brief: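 Survival endpoint. Drug-treated group vs vehicle group, expressed as T divided by C. Tumor passaged by transplantation.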

[1] = dose: 100.0 mg/kg/injection, schedule: Q01DX009 (ip), vehicle: Klucel (hydroxypropylcellulose) (HPC)
[2] = dose: 200.0 mg/kg/injection, schedule: Q01DX009 (ip), vehicle: Klucel (hydroxypropylcellulose) (HPC)
[3] = dose: 400.0 mg/kg/injection, schedule: Q01DX009 (ip), vehicle: Klucel (hydroxypropylcellulose) (HPC)
[4] = dose: 100.0 mg/kg/injection, schedule: Q01DX001 (ip), vehicle: saline
[5] = dose: 50.0 mg/kg/injection, schedule: Q01DX009 (ip), vehicle: saline
[6] = dose: 100.0 mg/kg/injection, schedule: Q01DX009 (ip), vehicle: saline
[7] = dose: 100.0 mg/kg/injection, schedule: Q04DX003 (ip), vehicle: saline
[8] = dose: 200.0 mg/kg/injection, schedule: Q01DX009 (ip), vehicle: saline
[9] = dose: 200.0 mg/kg/injection, schedule: Q04DX003 (ip), vehicle: saline
[10] = dose: 400.0 mg/kg/injection, schedule: Q01DX009 (ip), vehicle: saline
[11] = dose: 400.0 mg/kg/injection, schedule: Q04DX003 (ip), vehicle: saline
[12] = dose: 75.0 mg/kg/injection, schedule: Q01DX001 (ip), vehicle: other
[13] = dose: 150.0 mg/kg/injection, schedule: Q01DX001 (ip), vehicle: other
[14] = dose: 200.0 mg/kg/injection, schedule: Q01DX001 (ip), vehicle: saline
[15] = dose: 400.0 mg/kg/injection, schedule: Q01DX001 (ip), vehicle: saline

For `Nc1nnc(SCc2ccccc2)s1`, the T/C [1] was 92 % of control, the T/C [2] was 105 % of control and the T/C [3] was 97 % of control.
With `Cc1c(C(C)(C(=O)O)c2c(C)n(C)c3ccccc23)c2ccccc2n1C` the T/C (dose: 50.0 mg/kg/injection, schedule: Q01DX001 (ip), vehicle: other) was 96 % of control, the T/C (dose: 100.0 mg/kg/injection, schedule: Q01DX001 (ip), vehicle: other) was 93 % of control and the T/C (dose: 200.0 mg/kg/injection, schedule: Q01DX001 (ip), vehicle: other) was 91 % of control. For the same compound, the T/C (dose: 400.0 mg/kg/injection, schedule: Q01DX001 (ip), vehicle: other) was 96 % of control.
For `NC1=NC(c2ccccc2)N(c2ccccc2)C(N)=N1` (stereo not given), the T/C (dose: 50.0 mg/kg/injection, schedule: Q01DX001 (ip), vehicle: saline) was 99 % of control and the T/C [4] was 104 % of control.
With `C1CC2CCC[N+]3=C2C(C1)CCC3` (stereo not given) the T/C (dose: 12.0 mg/kg/injection, schedule: Q04DX003 (ip), vehicle: saline) was 93 % of control, the T/C (dose: 12.5 mg/kg/injection, schedule: Q01DX009 (ip), vehicle: saline) was 97 % of control and the T/C (dose: 25.0 mg/kg/injection, schedule: Q01DX009 (ip), vehicle: saline) was 101 % of control. For the same compound, the T/C (dose: 25.0 mg/kg/injection, schedule: Q04DX003 (ip), vehicle: saline) was 91 % of control, the T/C [5] was 101 % of control and the T/C (dose: 50.0 mg/kg/injection, schedule: Q04DX003 (ip), vehicle: saline) was 101 % of control.
In the case of `C/C(=N\O)c1c[nH]c(=O)[nH]c1=O`, the T/C (dose: 100.0 mg/kg/injection, schedule: Q04DX002 (ip), vehicle: Klucel (hydroxypropylcellulose) (HPC)) is reported as 94 % of control and the T/C (dose: 200.0 mg/kg/injection, schedule: Q04DX002 (ip), vehicle: Klucel (hydroxypropylcellulose) (HPC)) is reported as 103 % of control.
For `COc1ccc(Cl)cc1NC(=O)Nc1ccc(CCO)cc1`, the T/C [6] was 100 % of control, the T/C [7] was 113 % of control and the T/C [8] was 91 % of control. For the same compound, the T/C [9] was 103 % of control, the T/C [10] was 93 % of control and the T/C [11] was 101 % of control.
In the case of `NC(=S)N/N=C/c1c(O)ccc2ccccc12`, the T/C (dose: 100.0 mg/kg/injection, schedule: Q01DX001 (ip), vehicle: carboxymethylcellulose (CMC)) is reported as 96 % of control, the T/C (dose: 200.0 mg/kg/injection, schedule: Q01DX001 (ip), vehicle: carboxymethylcellulose (CMC)) is reported as 94 % of control and the T/C (dose: 400.0 mg/kg/injection, schedule: Q01DX001 (ip), vehicle: carboxymethylcellulose (CMC)) is reported as 94 % of control.
`[CH3][Sn]([CH3])([CH3])[CH2][Sn]([CH3])([CH3])[CH3]` was tested, and the T/C [5] was 101 % of control, the T/C [6] was 93 % of control and 103 % of control and the T/C [8] was 98 % of control.
With `CNC(=N)c1ccc(NC(=N)c2ccc(NC(=N)c3ccc(NC(=N)c4ccc(C(=N)NC)cc4)cc3)cc2)cc1` the T/C (dose: 4.4 mg/kg/injection, schedule: Q01DX015 (sc), vehicle: water) was 102 % of control, the T/C (dose: 5.5 mg/kg/injection, schedule: Q01DX Z (ip), vehicle: water) was 116 % of control and the T/C (dose: 6.7 mg/kg/injection, schedule: Q01DX015 (sc), vehicle: water) was 107 % of control. For the same compound, the T/C (dose: 7.5 mg/kg/injection, schedule: Q01DX001 (ip), vehicle: water) was 104 % of control, the T/C (dose: 10.0 mg/kg/injection, schedule: Q01DX015 (sc), vehicle: water) was 112 % of control and the T/C (dose: 15.0 mg/kg/injection, schedule: Q01DX001 (ip), vehicle: water) was 106 % of control. The T/C (dose: 16.0 mg/kg/injection, schedule: Q01DX015 (ip), vehicle: water) was 216 % of control, the T/C (dose: 22.0 mg/kg/injection, schedule: Q01DX Z (ip), vehicle: water) was 191 % of control and the T/C (dose: 22.5 mg/kg/injection, schedule: Q01DX015 (sc), vehicle: water) was 184 % of control. For the same compound, the T/C (dose: 30.0 mg/kg/injection, schedule: Q01DX001 (ip), vehicle: water) was 106 % of control and the T/C (dose: 44.0 mg/kg/injection, schedule: Q01DX Z (ip), vehicle: water) was 100 % of control.
For `NC(=O)SCC(=O)NNc1ccccc1`, the T/C [12] was 90 % of control, the T/C [13] was 98 % of control and the T/C (dose: 300.0 mg/kg/injection, schedule: Q01DX001 (ip), vehicle: other) was 100 % of control.
With `COC(=O)C(C)CN1CCCCCC1` (stereo not given) the T/C [6] was 97 % of control, the T/C [7] was 100 % of control and the T/C [8] was 104 % of control. For the same compound, the T/C [9] was 104 % of control, the T/C [10] was 95 % of control and the T/C [11] was 102 % of control.
For `CC(C)(c1cc(Br)c(O)c(Br)c1)c1cc(Br)c(O)c(Br)c1`, the T/C [1] was 93 % of control, the T/C (dose: 100.0 mg/kg/injection, schedule: Q04DX003 (ip), vehicle: Klucel (hydroxypropylcellulose) (HPC)) was 100 % of control and the T/C [2] was 94 % of control. For the same compound, the T/C (dose: 200.0 mg/kg/injection, schedule: Q04DX003 (ip), vehicle: Klucel (hydroxypropylcellulose) (HPC)) was 92 % of control, the T/C [3] was 91 % of control and the T/C (dose: 400.0 mg/kg/injection, schedule: Q04DX003 (ip), vehicle: Klucel (hydroxypropylcellulose) (HPC)) was 103 % of control.
In the case of `Oc1ccc(Cl)cc1Br`, the T/C (dose: 25.0 mg/kg/injection, schedule: Q01DX009 (ip), vehicle: saline with Tween-80) is reported as 100 % of control, the T/C (dose: 50.0 mg/kg/injection, schedule: Q01DX009 (ip), vehicle: saline with Tween-80) is reported as 88 % of control and the T/C (dose: 100.0 mg/kg/injection, schedule: Q01DX009 (ip), vehicle: saline with Tween-80) is reported as 100 % of control.
With `O=C1NCC2(CCCCCC2)O1` the T/C [4] was 104 % of control and the T/C [14] was 108 % of control.
In the case of `CC(=O)Nc1cccc(OCCOc2cccc([N+](=O)[O-])c2)c1`, the T/C [4] is reported as 100 % of control, the T/C [14] is reported as 101 % of control and the T/C [15] is reported as 101 % of control.
In the case of `O=NN(CCCl)C(=O)NC1CCCCCCCCCCC1`, the T/C (dose: 2.5 mg/kg/injection, schedule: Q01DX001 (ip), vehicle: carboxymethylcellulose (CMC)) is reported as 114 % of control, the T/C (dose: 5.0 mg/kg/injection, schedule: Q01DX001 (ip), vehicle: carboxymethylcellulose (CMC)) is reported as 120 % of control and the T/C (dose: 8.0 mg/kg/injection, schedule: Q01DX001 (ip), vehicle: carboxymethylcellulose (CMC)) is reported as 123 % of control. The T/C (dose: 12.0 mg/kg/injection, schedule: Q01DX001 (ip), vehicle: carboxymethylcellulose (CMC)) was 121 % of control, the T/C (dose: 187.0 mg/kg/injection, schedule: Q01DX001 (ip), vehicle: carboxymethylcellulose (CMC)) was 166 % of control and the T/C (dose: 250.0 mg/kg/injection, schedule: Q01DX001 (ip), vehicle: carboxymethylcellulose (CMC)) was 153 % of control. For the same compound, the T/C (dose: 375.0 mg/kg/injection, schedule: Q01DX001 (ip), vehicle: carboxymethylcellulose (CMC)) was 160 % of control, the T/C (dose: 500.0 mg/kg/injection, schedule: Q01DX001 (ip), vehicle: carboxymethylcellulose (CMC)) was 174 % of control and the T/C (dose: 555.0 mg/kg/injection, schedule: Q01DX001 (ip), vehicle: other) was 172 % of control. For the same compound, the T/C (dose: 596.0 mg/kg/injection, schedule: Q01DX001 (ip), vehicle: other) was 155 % of control, the T/C (dose: 750.0 mg/kg/injection, schedule: Q01DX001 (ip), vehicle: carboxymethylcellulose (CMC)) was 233 % of control and the T/C (dose: 838.0 mg/kg/injection, schedule: Q01DX001 (ip), vehicle: other) was 221 % of control. For the same compound, the T/C (dose: 1000.0 mg/kg/injection, schedule: Q01DX001 (ip), vehicle: carboxymethylcellulose (CMC)) was 247 % of control, the T/C (dose: 1192.0 mg/kg/injection, schedule: Q01DX001 (ip), vehicle: other) was 185 % of control and the T/C (dose: 1250.0 mg/kg/injection, schedule: Q01DX001 (ip), vehicle: other) was 274 % of control. The T/C (dose: 1500.0 mg/kg/injection, schedule: Q01DX001 (ip), vehicle: other) was 167 % of control, the T/C (dose: 1875.0 mg/kg/injection, schedule: Q01DX001 (ip), vehicle: other) was 261 % of control and the T/C (dose: 2000.0 mg/kg/injection, schedule: Q01DX001 (ip), vehicle: other) was 91 % of control. For the same compound, the T/C (dose: 2384.0 mg/kg/injection, schedule: Q01DX001 (ip), vehicle: other) was 178 % of control.
With `O=C(O)CCCCCN1C(=O)CCC1=O` the T/C (dose: 75.0 mg/kg/injection, schedule: Q04DX003 (ip), vehicle: saline) was 95 % of control, the T/C (dose: 150.0 mg/kg/injection, schedule: Q04DX003 (ip), vehicle: saline) was 103 % of control and the T/C (dose: 300.0 mg/kg/injection, schedule: Q04DX003 (ip), vehicle: saline) was 92 % of control.
For `Cc1nccc2ccsc12`, the T/C [12] was 105 % of control and the T/C [13] was 102 % of control.
For `CC(=O)CC(C)(C)C`, the T/C [4] was 102 % of control, the T/C [14] was 98 % of control and the T/C [15] was 91 % of control.
